Laboratory results from patent US7371889B2, “Chemical entities with multiple modes of anti-inflammatory action” (Sami Labs Limited, priority 2002, dated 2008).

Key:
[1] = tested on: Freund's adjuvant (FA) arthritis; assay: Freund's adjuvant (FA) arthritis in rats, nociception; type: in vivo; conditions: oral administration, dose giving the same extent of inhibition
Protocol: Freund's adjuvant (FA) arthritis was induced in rats by a single intraplantar injection into the right hindpaw of 100 microl of Mycobacterium butirricum (6 mg/mL). […] Hindpaw swelling (days 3, 7, 11, 14, 17, 21) and nociception (days 15 and 21) were measured. On day 22 rats were sacrificed, draining lymph nodes were removed and T cells isolated. In vitro proliferation of T cells following stimulation with concanavalin A (0.5-5 mcg/mL) was measured using a tritiated thymidine incorporation assay.

T cells = assay: In vitro proliferation of T cells from draining lymph nodes after concanavalin A stimulation, tritiated thymidine incorporation; type: cell-based; conditions: T cells isolated day 22 from treated rats, thymidine uptake
Protocol: Hindpaw swelling (days 3, 7, 11, 14, 17, 21) and nociception (days 15 and 21) were measured. On day 22 rats were sacrificed, draining lymph nodes were removed and T cells isolated. In vitro proliferation of T cells following stimulation with concanavalin A (0.5-5 mcg/mL) was measured using a tritiated thymidine incorporation assay.
IL-2 receptor expression on T cells was measured by FACS analysis. […] T cells were isolated and characterized by FACS analysis.

SMILES	dose at which anti-nociceptive [1] [mg/kg]	order of activity, inhibition of T-cell proliferation (T cells)
CC(=O)O[C@@H]1CC[C@@]2(C)[C@@H](CC[C@]3(C)[C@@H]2C(=O)C=C2[C@@H]4[C@@H](C)[C@H](C)CC[C@]4(C)CC[C@@]23C)[C@@]1(C)C(=O)OCOC(=O)C(C)c1ccc(CC(C)C)cc1 (some centres unmarked) [SA-040, AKBBA-Ibuprofen conjugate]	5.9	SA-041>SA-040>N>1>AKBBA
CC(=O)OC1CCC2(C)C(CCC3(C)C2C(=O)C=C2C4C(C)C(C)CCC4(C)CCC23C)C1(C)C(=O)OCCl (stereo not drawn) [Example 1, 3-Acetyl-11-keto-β-boswellic acid chloromethyl ester]	–	SA-041>SA-040>N>1>AKBBA
COc1ccc2cc([C@H](C)C(=O)O)ccc2c1 [N, Naproxen, reference compound]	–	SA-041>SA-040>N>1>AKBBA
CC(=O)O[C@@H]1CC[C@@]2(C)[C@@H](CC[C@]3(C)[C@@H]2C(=O)C=C2[C@@H]4[C@@H](C)[C@H](C)CC[C@]4(C)CC[C@]23C)[C@@]1(C)C(=O)O [AKBBA, 3-acetyl-11-keto-β-boswellic acid, reference compound]	–	SA-041>SA-040>N>1>AKBBA
